Assay results taken from paper PMC11279551, “Pharmacokinetics and Enterohepatic Circulation of 2-(Quinoline-8-carboxamido)benzoic Acid (2-QBA) in Mice” (Pharmaceutics, 2024).
In brackets after ≈: the same amount, converted by molar mass. Like-named read-outs stand apart in the source and are kept apart here.

Columns and labels:
Water solubility = format: physicochemical; conditions: n = 4
[1] = Effect of activated charcoal (AC) on the pharmacokinetics of 2-QBA; format: in vivo; conditions: mice; for AUC(0-t): read-out: AUC24h
Experimental: To elucidate the reabsorption mechanism of 2-QBA, a pharmacokinetic study of 2-QBA was conducted with activated charcoal (AC) administered PO. Male ICR mice (7 weeks old, 25–30 g) were fasted for 14–16 h prior to the administration of 2-QBA.
(§1) In total, […] were administered 2-QBA (1 mg/kg/3 mL) via the tail vein. Two hours after the 2-QBA dosing, AC (0.8 g/kg/5 mL in distilled water) or a vehicle (5 mL/kg distilled water) was administrated via oral gavage. Each group included ten mice who were randomly divided into two groups for sparse sampling. Blood collection was performed at 0.083, 0.5, 2, and 8 h from 5 mice and at 0.25, 1, 4, and 24 h from another 5 mice, as described previously. Four mice treated with either AC (0.8 g/kg) or the vehicle 2 h after the 2-QBA IV dosing (1 mg/kg) were returned to a metabolic cage to collect the urine and feces samples. The urine and feces samples were collected for 72 h.
(§2) Next, 2-QBA was administered PO (2 mg/kg/5 mL) with or without AC (0.8 g/kg in 3 mL of DW), which was administered via oral gavage 2 h after the 2-QBA dosing. Each group included eight mice who were randomly divided into two groups for sparse sampling. Blood collection was performed at 0.25, 0.75, 2, and 8 h from 4 mice and at 0.5, 1, 4, and 24 h from another 4 mice, as described previously. Four mice treated with either AC (0.8 g/kg) or vehicle 2 h after the 2-QBA PO dosing (2 mg/kg) were returned to a metabolic cage to collect the urine and feces samples. The urine and feces samples were collected for 72 h.
Aliquots of plasma samples (30 μL) were added to 120 μL of IS solution. The mixture was vigorously vortexed for 5 min and then centrifuged at 13,000× g for 5 min. The supernatant was transferred to autosampler vials. Subsequently, a 3 μL aliquot was injected into the LC-MS/MS system. Aliquots (30 μL) of urine and 10% feces homogenate samples were added to 60 μL of 150 mM sodium acetate buffer (pH 5.0) in the presence or absence of β-glucuronidase (900 unit) at 37 °C for 2 h. The reaction was quenched by adding four volumes of ice-cold IS solution. The mixture was vigorously vortexed for 5 min, followed by centrifugation at 13,000× g for 5 min. The supernatant was transferred to autosampler vials and subsequently a 3 μL aliquot was injected into the LC-MS/MS system.
WinNonlin 5.1 software (Pharsight Co., Mountain View, CA, USA) was used to calculate the pharmacokinetic parameters. AUClast and AUCinf indicate the areas under the plasma concentration curve from 0 h to the last sample and from 0 h to infinity, respectively; these were estimated using the linear trapezoidal method. T1/2 is the elimination half-life, which is estimated from the elimination coefficient (k) (i.e., 0.693/k), and MRT is the mean residence time. CL is the total clearance, which is calculated by dividing the dose by AUCinf. Vdss is the volume of the distribution at a steady state, calculated from MRTxCL. CLrenal and CLfeces are calculated by dividing the amount excreted in urine and feces by the AUCinf, respectively. CLmetabolism is calculated by subtracting CLrenal and CLfeces from CL. Cmax and Tmax are the maximum plasma concentration and time to reach Cmax, respectively. BA is calculated by dividing the dose-normalized AUCinf for PO administration (AUCinf/PO dose) by the dose-normalized AUCinf for IV administration (AUCinf/IV dose). All data are expressed as the mean ± standard deviation (SD).

[2] = Urinary and fecal excretion of 2-QBA and 2-QBA-Glu with vehicle or AC treatment (β-glucuronidase treatment); format: in vivo; conditions: mice; for urinary excretion rate: PO 2 mg/kg
Experimental: as §1, §2
Aliquots of plasma samples (30 μL) were added to 120 μL of IS solution. The mixture was vigorously vortexed for 5 min and then centrifuged at 13,000× g for 5 min. The supernatant was transferred to autosampler vials. Subsequently, a 3 μL aliquot was injected into the LC-MS/MS system. Aliquots (30 μL) of urine and 10% feces homogenate samples were added to 60 μL of 150 mM sodium acetate buffer (pH 5.0) in the presence or absence of β-glucuronidase (900 unit) at 37 °C for 2 h. […]
Then, we quantified the 2-QBA and 2-QBA-Glu from the urine and fecal samples obtained from the mice after IV or PO administration of 2-QBA. In addition, the amount of 2-QBA-Glu was calculated by subtracting the control 2-QBA from the total 2-QBA with β-glucuronidase treatment. […]

[3] = Intestinal permeability in Ussing chamber; format: in vitro ADME, mice; conditions: upper and lower ileum
Experimental: The small intestines were isolated from fasted mice under isoflurane anesthesia (1–3% with oxygen gas flow) and dissected into three parts, the jejunum, upper ileum, and lower ileum. […] The intestinal permeability of 2-QBA was assessed by adding 0.5 mL of HBSS containing 20 μM of 2-QBA on the donor side and 0.5 mL of fresh HBSS on the receiver side. Then, a 100 μL aliquot was withdrawn from the receiver side every 30 min for 2 h and an equal volume of pre-warmed fresh HBSS was added to replenish the lost volume. To analyze the 2-QBA, 100 μL aliquots were mixed with 4 volumes of IS solution (1 ng/mL berberine in acetonitrile). The mixture was vigorously vortexed for 5 min and then centrifuged at 13,000× g for 5 min. The supernatant was transferred to autosampler vials. Subsequently, a 3 μL aliquot was injected into the LC-MS/MS system.

[4] = male, ICR, mouse, plasma, iv, 1 mg/kg, IV 1 mg/kg, AC (0.8 g/kg)
[5] = male, ICR, mouse, plasma, iv, 1 mg/kg, IV 1 mg/kg, Control
[6] = male, ICR, mouse, plasma, po, 2 mg/kg, PO 2 mg/kg, AC (0.8 g/kg)
[7] = male, ICR, mouse, plasma, po, 2 mg/kg, PO 2 mg/kg, Control

Compound O=C(O)c1ccccc1NC(=O)c1cccc2cccnc12 [2-QBA, 2-(quinoline-8-carboxamido)benzoic acid] has a solubility (Water solubility) of 35.6 ± 2.71 µg/mL (≈ 122 µM), an AUC(0-t) ([1]; male, ICR, mouse, plasma, intravenous, 1 mg/kg, IV 1 mg/kg, AC (0.8 g/kg) PO 2 h after dosing) of 1180 ± 264 ng·h/mL and an AUC(0-inf) [1, 4] of 1210 ± 293 ng·h/mL. For the same compound, the MRT [1, 4] was 2.48 ± 2.56 h, the clearance [1, 4] was 14.5 ± 3.95 mL/min/kg and the half-life [1, 4] was 3.18 ± 2.52 h. For the same compound, the AUC(0-inf) [1, 5] was 1330 ± 422 ng·h/mL, the MRT [1, 5] was 2.88 ± 1.14 h and the clearance [1, 5] was 13.9 ± 5.41 mL/min/kg. The half-life [1, 5] was 3.88 ± 1.72 h, the AUC(0-t) ([1]; male, ICR, mouse, plasma, iv, 1 mg/kg, IV 1 mg/kg, Control (vehicle 2 h after dosing)) was 1270 ± 361 ng·h/mL and the AUC(0-inf) [1, 6] was 836 ± 209 ng·h/mL. For the same compound, the MRT [1, 6] was 7 ± 2.48 h, the half-life [1, 6] was 5.5 ± 2.24 h and the Cmax ([1]; male, ICR, mouse, plasma, po, 2 mg/kg, PO 2 mg/kg, AC (0.8 g/kg) 2 h after dosing) was 315 ± 106 ng/mL. It also gave an AUC(0-t) [1, 6] of 650 ± 305 ng·h/mL, an AUC(0-inf) [1, 7] of 2110 ± 608 ng·h/mL and a Cmax [1, 7] of 399 ± 90.7 ng/mL. It also gave an MRT [1, 7] of 8.49 ± 3.08 h, a half-life [1, 7] of 6.05 ± 2.04 h and an AUC(0-t) [1, 7] of 1930 ± 453 ng·h/mL. The Tmax ([1]; male, ICR, mouse, plasma, PO 2 mg/kg, Control) was 0.25 h, the BA ([1]; PO 2 mg/kg, AC (0.8 g/kg)) was 34.5% and the BA ([1]; PO 2 mg/kg, Control) was 79.8%. The dose excreted ([2]; ICR, mouse, faeces, 1 mg/kg, IV injection of 2-QBA, read-out: fecal recovery rate) was < 5%, the urinary excretion rate ([2]; with AC (0.8 g/kg)) was 17.5 % of the administered PO dose and the urinary excretion rate ([2]; without AC) was 27.7 % of the administered PO dose. The “absorptive permeability class compared with marker compounds” value ([3]; jejunum) was “moderate to high” and the Papp A→B at 2 h, 20 μM ([3]; mouse, 20 μM donor, HBSS pH 7.4, range over jejunum, read-out: absorptive permeability) was 4.46 to 10 ×10⁻⁶ cm/s.
